Laboratory results from patent US7928210B2, “Nucleoside based proliferation imaging markers” (Siemens Medical Solutions USA, Inc., priority 2007, dated 2011).
“Also recorded” adds a separate entry of the source.

Assays:
[1] = molecular target: T1, human thymidine kinase 1 (hTK1) (Homo sapiens, UniProt P04183); experiment: hTK-1 kinase phosphorylation, metabolites monitored by LC/MS-SIM; details: in vitro
T1 sequence (P04183 1-234): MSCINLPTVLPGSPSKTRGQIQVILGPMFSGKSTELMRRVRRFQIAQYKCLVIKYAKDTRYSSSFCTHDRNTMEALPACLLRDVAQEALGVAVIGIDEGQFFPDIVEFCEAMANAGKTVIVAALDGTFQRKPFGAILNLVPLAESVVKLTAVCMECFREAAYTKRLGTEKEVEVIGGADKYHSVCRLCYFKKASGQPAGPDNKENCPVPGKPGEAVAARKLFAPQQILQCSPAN

[2] = cited from earlier work
A431 tumor bearing mice = experiment: In vivo imaging of A431 tumor bearing mice (clearance, tumor localization, tumor ratios); parameters: species or system mouse; details: for Type of Clearance / Localization within the tumor: in vivo (rodents), A431 tumor; for Ratio T/B: tumor to background, p.i. 45 min; for Ratio T/M: tumor to muscle
[3] = tested on: A431 cell line (human skin epidermoid carcinoma, high S phase); experiment: Cancer cell uptake, A431; details: (i) A431
[4] = tested on: SK-N-MC cell line (human brain neuroepithelioma, high S phase); experiment: Cancer cell uptake, SK-N-MC; details: for Cell Uptake: (ii) SK-N-MC; for Uptake and intracellular retention: SK-N-MC cells in vitro
DNA = experiment: Incorporation into DNA compared against FMAU; type: cell-based; details: data not shown
[5] = tested on: A172 cell line (human brain glioblastoma, low S phase); experiment: Cancer cell uptake, A172; details: for Cell Uptake: (iii) A172; for Uptake and intracellular retention: A172 cells in vitro
Balb/3T12-3 cells = experiment: Cell uptake, Balb/3T12-3; details: for Cell Uptake: (iv) Balb/3T12-3; for Uptake and intracellular retention: BalB/3T12-3 cells in vitro
[6] = tested on: human liver cancer cells (HepG2); experiment: Liver cell uptake by LC/MS-SIM, human liver cancer cells; type: cell-based; details: HepG2, in vitro
Excerpt: (§1) The mouse liver cell uptake of a small number of thymidine analogs was higher than FLT and thymidine, and the levels of human liver cell uptake were similar to FLT and thymidine. Ideally, low levels of liver cell uptake help increase the tumor to background ratios in the PET image. Furthermore, we examined the metabolic profile of the leads (Ta-1, Ta-4, and Ta-10) in vitro using normal mouse liver cell line (AML12) and human liver cancer cell line (HepG2).

[7] = tested on: normal mouse liver cells (AML12); experiment: Liver cell uptake by LC/MS-SIM, normal mouse liver cells; type: cell-based; details: AML12, in vitro
Excerpt: as §1

Cc1cn([C@H]2CC(F)[C@@H](CO)O2)c(=O)[nH]c1=O (stereo partly shown) [FLT, 3′-[^18F]fluoro-3′-deoxythymidine, reference compound]
Pi % (phosphorylation percentage) [1]: 31% | Injected dose per gram in tumors, on average ([2]; background section): 5% | Type of Clearance (A431 tumor bearing mice): Clear through renal system; localize within the tumor

Cc1cn([C@H]2CC(n3cc(CF)nn3)[C@@H](CO)O2)c(=O)[nH]c1=O (stereo partly shown) [FLT-Click-1]
Pi % (phosphorylation percentage) [1]: 6.1% | Type of Clearance (A431 tumor bearing mice): Clear very rapidly from the blood; localize mainly in the bladder

Cc1cn([C@H]2CC(F)[C@@H](CO)O2)c(=O)n(Cc2cn(CCF)nn2)c1=O (stereo partly shown) [FLT-Click-2]
Cell Uptake [3]: 0.003 | Cell Uptake [4]: 0.080 | Pi % (phosphorylation percentage) [1]: 4.5% | Localization within the tumor (A431 tumor bearing mice): ≤ 1 % ID/g | Type of Clearance (A431 tumor bearing mice): Clear through the gut/ hepatobiliary system; localize moderately within the tumor | Ratio T/B (A431 tumor bearing mice): 1.75 (T/B; (p.i. 45 min)

O=c1[nH]c(=O)n([C@H]2CC(O)[C@@H](CO)O2)cc1-c1cn(CCF)nn1 (stereo partly shown) [FLT-Click-3]
Pi % (phosphorylation percentage) [1]: 0% | Type of Clearance (A431 tumor bearing mice): Clear through the gut; but did not localize within the tumor | Ratio T/B (A431 tumor bearing mice): 1.1 (T/B; p.i. 45 min)

Cc1cn([C@@H]2O[C@H](CO)C(O)C2F)c(=O)[nH]c1=O (stereo partly drawn) [FMAU, 1-(2′-deoxy-2′-[^18F]fluoro-β-D-arabinofuranosyl)-5-methyluracil, reference compound]
Cell Uptake [3]: 0.012 | Incorporation into DNA (DNA): very high | Cell Uptake [4]: 0.011 | Pi % (phosphorylation percentage) [1]: 80% | Type of Clearance ([2]; known / literature (Sun et al. 2005 for FMAU; 11C label for thymidine)): Hepatobiliary clearance^c | Cell Uptake [5]: 0.015

Cc1cn([C@H]2CC(O)[C@@H](CO)O2)c(=O)n(Cc2cn(CCF)nn2)c1=O (stereo partly shown) [Ta-1]
Cell Uptake [3]: 0.045 | Cell Uptake (Balb/3T12-3 cells): 0.064 | Uptake and intracellular retention (Balb/3T12-3 cells): favorably taken up and retained intracellularly | Cell Uptake [4]: 0.081 | Uptake and intracellular retention [4]: favorably taken up and retained intracellularly | Pi % (phosphorylation percentage) [1]: 65.6% | Localization within the tumor (A431 tumor bearing mice): ≤ 1 % ID/g | Type of Clearance (A431 tumor bearing mice): despite rapid gut clearance, a small percentage of the inject dose penetrated and localized within the tumor; also recorded: Clear through the gut/ hepatobiliary system; localize mainly in the gut; a small percentage of the inject dose penetrate and localize within the tumor | Ratio T/M (A431 tumor bearing mice; p.i. 50 min): 2.1 (T/M; p.i. 50 min) | Cell Uptake [5]: 0.042 | Uptake and intracellular retention [5]: favorably taken up and retained intracellularly

Cc1cn([C@H]2CC(O)[C@@H](CO)O2)c(=O)n(Cc2cn(Cc3cc(F)ccn3)nn2)c1=O (stereo partly shown) [Ta-2]
Cell Uptake [3]: 0.019 | Cell Uptake (Balb/3T12-3 cells): 0.090 | Cell Uptake [4]: 0.030 | Pi % (phosphorylation percentage) [1]: 39.2% | Cell Uptake [5]: 0.071

Cc1cn([C@H]2CC(O)[C@@H](CO)O2)c(=O)n(Cc2cn([C@H](C(=O)NCc3cc(F)ccn3)C(C)C)nn2)c1=O (stereo partly shown) [Ta-3]
Cell Uptake [3]: 0.004 | Cell Uptake (Balb/3T12-3 cells): 0.117 | Cell Uptake [4]: 0.059 | Pi % (phosphorylation percentage) [1]: 25.5% | Type of Clearance (A431 tumor bearing mice): large localization of the tracer in the gut and clearance through the bowels; also recorded: Clear through the bowels; localize mainly in the gut | Cell Uptake [5]: 0.093

Cc1cn([C@H]2CC(O)[C@@H](CO)O2)c(=O)n(CCF)c1=O (stereo partly shown) [Ta-4, 3-N-(2′-[^18F]fluoroethyl)-thymidine]
Cell Uptake [3]: 0.172 | Liver cell uptake [6]: less than Ta-1 | Uptake and intracellular retention (Balb/3T12-3 cells): favorably taken up and retained intracellularly | Incorporation into DNA (DNA): substantially lower | Cell Uptake [4]: 0.218 | Uptake and intracellular retention [4]: favorably taken up and retained intracellularly | Pi % (phosphorylation percentage) [1]: 77.4% | Localization within the tumor (A431 tumor bearing mice): 2-3.5 % ID/g | Type of Clearance (A431 tumor bearing mice): has less liver uptake than Ta-1, localizes more strongly within the A-431 based tumor and possesses a clearance mechanism similar to FLT; also recorded: Less liver uptake than Ta-1; localize more strongly within the A431 based tumor; possess a clearance mechanism similar to FLT | Ratio T/M (A431 tumor bearing mice; p.i. 50 min): 2.3 (T/M; p.i 50 min) | Cell Uptake [5]: 0.142 | Uptake and intracellular retention [5]: favorably taken up and retained intracellularly | Liver cell uptake [7]: less than Ta-1

Cc1cn([C@H]2CC(O)[C@@H](CO)O2)c(=O)n(Cc2cn(Cc3cccc(Br)c3)nn2)c1=O (stereo partly shown) [Ta-4D]
Pi % (phosphorylation percentage) [1]: 51.9%

Cc1cn([C@H]2CC(F)[C@@H](CO)O2)c(=O)n(CCF)c1=O (stereo partly shown) [Ta-4F]
Cell Uptake [3]: 0.075 | Cell Uptake [4]: 0.063 | Pi % (phosphorylation percentage) [1]: 9.2% | Cell Uptake [5]: 0.067

Cc1cn([C@H]2CC(O)[C@@H](CO)O2)c(=O)n(CCn2cc(CF)nn2)c1=O (stereo partly shown) [Ta-5]
Cell Uptake [3]: 0.068 | Cell Uptake [4]: 0.072 | Pi % (phosphorylation percentage) [1]: 10.2% | Cell Uptake [5]: 0.051

Cc1cn([C@H]2CC(F)[C@@H](CO)O2)c(=O)n(CCF)c1=O (stereo partly shown) [Ta-6]
Cell Uptake [3]: 0.023 | Cell Uptake [4]: 0.007 | Pi % (phosphorylation percentage) [1]: 4.5% | Cell Uptake [5]: 0.004

Cc1cn([C@@H]2O[C@H](CO)C(O)C2OCCF)c(=O)[nH]c1=O (stereo partly shown) [Ta-7]
Cell Uptake [3]: 0.027 | Cell Uptake [4]: 0.083 | Pi % (phosphorylation percentage) [1]: 5.6% | Localization within the tumor (A431 tumor bearing mice): ≤ 1 % ID/g | Type of Clearance (A431 tumor bearing mice): Clear through the gut/ hepatobiliary system; localize mainly in the gut; a small percentage of the inject dose penetrate and localize within the tumor | Ratio T/M (A431 tumor bearing mice; time not given): 1.05 (T/M) | Cell Uptake [5]: 0.004

Cc1cn([C@@H]2O[C@H](CO)C(O)C2O)c(=O)n(CCF)c1=O (stereo partly shown) [Ta-8]
Cell Uptake [3]: 0.052 | Cell Uptake [4]: 0.097 | Pi % (phosphorylation percentage) [1]: 18.2% | Localization within the tumor (A431 tumor bearing mice): ≤ 1 % ID/g | Type of Clearance (A431 tumor bearing mice): Clear through the renal system; localize moderately within the tumor | Ratio T/M (A431 tumor bearing mice; time not given): 0.99 (T/M) | Cell Uptake [5]: 0.018

Cc1cn([C@@H]2O[C@H](CO)C(O)C2F)c(=O)n(CCF)c1=O (stereo partly shown) [Ta-9]
Cell Uptake [3]: 0.027 | Cell Uptake [4]: 0.014 | Pi % (phosphorylation percentage) [1]: 1.4% | Cell Uptake [5]: 0.009

Cc1cn([C@H]2CC(O)[C@@H](CO)O2)c(=O)n(CC(O)CF)c1=O (stereo partly shown) [Ta-10]
Cell Uptake [3]: 0.023 | Incorporation into DNA (DNA): substantially lower | Cell Uptake [4]: 0.031 | Pi % (phosphorylation percentage) [1]: 27.5% | Localization within the tumor (A431 tumor bearing mice): ≤ 1 % ID/g | Type of Clearance (A431 tumor bearing mice): Clear through the gut/renal system; localize moderately within the tumor | Ratio T/M (A431 tumor bearing mice; time not given): 0.35 (T/M) | Cell Uptake [5]: 0.017

Cc1cn([C@@H]2O[C@H](CO)C(O)C2O)c(=O)n(CCF)c1=O (stereo partly shown) [Ta-11]
Cell Uptake [3]: 0.03 | Cell Uptake [4]: 0.02 | Pi % (phosphorylation percentage) [1]: 9.8% | Localization within the tumor (A431 tumor bearing mice): ≤ 1 % ID/g | Type of Clearance (A431 tumor bearing mice): Clear through the renal system; localize moderately within the tumor | Ratio T/M (A431 tumor bearing mice; time not given): 0.52 (T/M) | Cell Uptake [5]: 0.006

Cc1cn([C@H]2CC(O)[C@@H](CO)O2)c(=O)n(CCCF)c1=O (stereo partly shown) [Ta-14]
Incorporation into DNA (DNA): substantially lower

Cc1cn([C@H]2CC(O)[C@@H](CO)O2)c(=O)n(Cc2cn([C@H](C(=O)NCc3ccccc3)C(C)C)nn2)c1=O (stereo partly shown) [Ta-6233]
Pi % (phosphorylation percentage) [1]: 71.5%
